According to PMC12582971, “NeuproGemp, a polyphenol-rich botanical formula, ameliorates Alzheimer’s-like pathology in APP/PS1 mice via inhibition of human glutaminyl cyclase” (Frontiers in Pharmacology, 2025):
pIC50: −log10 of the molar value.

Target: T1, human glutaminyl cyclase (hQC) (Homo sapiens, UniProt Q16769)
T1 construct: covering residues Ala33 to Leu361, was cloned into the pQE-80L expression vector; polyhistidine tag; made in house; host or cells: E. coli BL21 (DE3)
Test: hQC inhibition assay (coupled spectrophotometric, H-Gln-Gln-OH substrate)
Type: biochemical
Details: for inhibitory effect on hQC (in words): dose-response assay; for pIC50: 0.1 μM hQC, 1 mM H-Gln-Gln-OH, 25 °C, pH 8.0, mean ± SD, three experiments, read-out: IC50 against hQC
Experimental: The coding sequence of human glutaminyl cyclase (hQC), covering residues Ala33 to Leu361, was cloned into the pQE-80L expression vector utilizing the restriction sites BamHI and HindIII. This recombinant plasmid was introduced into E. coli BL21 (DE3) cells through heat shock transformation. For protein expression, the transformed E. coli cells were grown in Luria-Bertani (LB) medium supplemented with 100 mg/L ampicillin at 37 °C. Once the optical density at 600 nm (OD600) reached 0.6, protein expression was induced using 0.1 mM isopropyl β-D-1-thiogalactopyranoside (IPTG), and the culture was incubated at 24 °C for 48 h, optimizing for soluble protein yield under reduced temperature conditions. After induction, the cells were harvested by centrifugation at 6,000 rpm for 20 min. The resulting cell pellet was resuspended in a lysis buffer containing 50 mM Tris-HCl (pH 8.5), 150 mM NaCl, and 20 mM imidazole. Cell disruption was performed using high-pressure homogenization via a microfluidizer (Microfluidics). The lysate was clarified through centrifugation, and the soluble protein fraction was purified using nickel-nitrilotriacetic acid (Ni-NTA) affinity chromatography, leveraging the polyhistidine tag for selective binding to the resin. The bound hQC protein was eluted and further purified using standard chromatographic techniques.
The inhibitory effects of various compounds on human glutaminyl cyclase (hQC) were assessed using a validated spectrophotometric assay. In this assay, glutamic dehydrogenase (EC 1.4.1.3; Sigma-Aldrich) was utilized as a coupling enzyme to indirectly quantify hQC activity, employing H-Gln-Gln-OH (Bachem) as the specific substrate. The reaction mixture consisted of 50 mM Tris-HCl (pH 8.0), 0.25 mM NADH, 30 U of glutamic dehydrogenase, 15 mM α-ketoglutaric acid, and 0.1 μM hQC. Inhibitors were introduced to the reaction mixture and allowed to incubate for 5 min at 25 °C to promote interaction with the enzyme. The enzymatic reaction was initiated by adding 1 mM of the substrate, and the progression was monitored by measuring the absorbance at 340 nm, corresponding to the oxidation of NADH. The IC50 values for the inhibitors were calculated by plotting initial reaction rates against the logarithmic concentrations of the inhibitors. Nonlinear regression fitting was conducted using GraphPad Prism 6 software, enabling accurate quantification of the inhibitors’ potencies and facilitating a detailed analysis of their inhibitory effects on hQC.
The enzymatic activity of recombinant hQC was measured using a coupled spectrophotometric assay with H-Gln-Gln-OH as substrate and glutamic dehydrogenase as a coupling enzyme. […] Initial reaction rates were monitored by measuring NADH oxidation at 340 nm, and IC50 values were calculated using nonlinear regression in GraphPad Prism 6. Data are presented as mean ± SD from three independent experiments. Lower IC50 values indicate stronger inhibition of hQC activity.

T1 sequence (Q16769 33-361): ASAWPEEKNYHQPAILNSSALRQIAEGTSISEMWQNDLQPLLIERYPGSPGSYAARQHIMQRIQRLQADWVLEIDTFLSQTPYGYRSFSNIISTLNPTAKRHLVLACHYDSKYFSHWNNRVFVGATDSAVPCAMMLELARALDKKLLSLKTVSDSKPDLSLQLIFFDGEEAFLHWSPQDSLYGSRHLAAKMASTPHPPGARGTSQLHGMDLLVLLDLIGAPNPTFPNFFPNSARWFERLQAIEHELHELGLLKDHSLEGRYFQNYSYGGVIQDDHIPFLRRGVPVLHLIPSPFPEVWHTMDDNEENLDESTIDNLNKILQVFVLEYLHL

Row | hQC activity suppression at 100 μM | inhibitory effect on hQC (in words) | pIC50 | SMILES
1 | less than 50% | minimal to no significant inhibition | – | O=C(/C=C/c1ccccc1)OC[C@H]1O[C@@H](OC(=O)c2cc(O)c(O)c(O)c2)[C@H](O)[C@@H](O)[C@@H]1O [1-o-galloyl-6-o-cinnamoylglucose]
2 | – | only weak inhibitory effects | 5.38 | O=C(OCC1OC(OC(=O)c2cc(O)c(O)c(O)c2)C(O)C(OC(=O)c2cc(O)c(O)c(O)c2)C1O)c1cc(O)c(O)c(O)c1 (stereo not drawn) [GG3, 1,3,6-Trigalloylglucose]
3 | – | – | 5.84 | O=C(OCC1OC(OC(=O)c2cc(O)c(O)c(O)c2)C(OC(=O)c2cc(O)c(O)c(O)c2)C(OC(=O)c2cc(O)c(O)c(O)c2)C1O)c1cc(O)c(O)c(O)c1 (stereo not drawn) [GG4, 1,2,3,6-Tetragalloylglucose]
4 | less than 50% | minimal to no significant inhibition | – | C[C@@]12C[C@@]3(O)O[C@@H](O1)[C@]1(COC(=O)c4ccccc4)[C@H]3C[C@@]12O[C@@H]1O[C@H](CO)[C@@H](O)[C@H](O)[C@H]1O [Paeoniflorin]

Row | SMILES | hQC activity suppression at 100 μM | inhibitory effect on hQC (in words) | pIC50
5 | OCc1ccc(O[C@@H]2O[C@H](CO)[C@@H](O)[C@H](O)[C@H]2O)cc1 [Gastrodin] | less than 50% | only weak inhibitory effects | –
